Results published in patent US20100331363A1, “TREATMENT OF MITOCHONDRIAL DISORDERS USING A FARNESYL TRANSFERASE INHIBITOR” (Link Medicine Corporation, priority 2008, published 2010).
Like-named read-outs stand apart in the source and are kept apart here.

Legend:
isolated islets / INS1 = test: Oxygen consumption, Seahorse XF24 bioenergetic assay; type: cell-based; details: 1 nM
Method: Impaired mitochondrial function is shown by a decreased rate of oxygen consumption. […] The effect of LNK-754 at 1 nM and 10 nM doses on oxygen consumption was determined. Oxygen consumption in INS1 was measured using a Seahorse XF24 bioenergetic assay. Assays have been previously described in detail (See, Wu M, et al. Am J Physiol Cell Physiol 2007; 292:C125-36).

GGTase = GGTase (Homo sapiens, UniProt P49354+P53609); test: Table 5A in vitro GGTI (H-Ras, K-Ras CAAX mutant); type: biochemical
Text: (§1) The selectivity of LNK-754 for FTase over GGTAse is shown below in Table 5A.

INS-1 cells = test: Whole cell mitochondrial fusion assay (paGFP) in INS-1 cells; type: cell-based; details: 1 nM, 48 hours
Text: Mitochondrial dynamics is necessary for the maintenance of bioenergetic functions and maintenance of homogenous population of mitochondria. Mutations in Mfn2 and Opal have been implicated in neuropathies. A whole cell fusion assay was used to evaluate the effect of LNK-754 on the enhancement of mitochondrial fusion and fission events. Photo-activateable GFP is used to label and follow an individual mitochondrion. Photo-activatable GFP becomes fluorescent only after absorbing UV light. Mitochondria undergo frequent fusion and fission. During fusion, the labeled mitochondrion passes fluorescent GFP to a neighboring unlabeled mitochondrion (Molina and Shirihai, […], 2009). […] The following assay protocol was followed: paGFP expression was carried out using adenoviral transduction if INS-1 cells. The cells were treated for 48 hours with 1 nM LNK-754. Mitochondria were labeled with TMRE to facilitate tagging. UV pulse was delivered by two-photon laser. Z-stacks of individual cells were taken every 5 minutes for 30 minutes. Three separate runs were performed over 3 weeks at imaging facilities.

FTase = FTase (Homo sapiens, UniProt P49354+P49356); test: Table 5A in vitro FTI (H-Ras, K-Ras protein) and Ki FTase; type: biochemical
Text: as §1

[1] = Pharmacokinetics of LNK-754-TS in mice, oral; type: in vivo, mouse; details: for MRT inf: read-out: MRT(0-∞)
Text: In the experimental data represented in Table 2A, a different method of drug delivery is used (oral) than in the experiment represented in FIG. 3. The best way to compare the relative coverage of the two delivery methods (oral and continuous infusion) is by comparing area-under-the-curve (AUC) values. We can compare the calculated AUC values for the continuous infusion oncology study presented in FIG. 3 and the AUC values associated with the synuclein model doses in the table. […] The AUCs of orally dosed LNK-754-TS at 0.9 mg/kg and at 0.09 mg/kg QD are 34.6 and […], respectively.
The pharmacokinetic profiles of LNK-754-TS and Zarnestra® were analyzed using methods known in the art. The results are shown in FIGS. 13-14 and the tables below.

aged non-transgenic rats = test: Morris water maze in aged non-transgenic rats; type: in vivo, rat; details: aged rats 22 months, 0.3 mg/kg and 0.9 mg/kg once every 24 hours
Text: Morris water maze (MWM) analysis of cognitive performance: In APP/PS1 transgenic animals, swimming behavior in a Morris Water Maze was videotaped and analyzed (Ethovision, Noldus, Wageningen, Netherlands). For mice, a place navigation test was used to locate the hidden platform in five blocks of three trials over three consecutive days. Each trial consists of a forced swim test of maximum 120 seconds, followed by 60 seconds of rest. The time each mouse needed for location of the platform was measured. For rats, a cued learning phase was first conducted, consisting of 3 trials per day for 5 days, using a visible platform of varying location. Each trial consisted of a forced swim test of maximum 60 seconds, followed by 10 minutes of rest. The time and path length each rat needed to locate the platform was measured.
In order to rule out the possibility that the rapid observed improvement in cognition described above arose from an alternative, transgene-independent mechanism, aged non-transgenic rats (22 months old) were treated with LNK-754-TS (0.3 mg/kg and 0.9 mg/kg, once every 24 hours) and their cognitive performance was measured by MWM and compared to that of younger rats (3 months old) of the same strain.

[2] = C57BL/6, mouse, in vivo, po, 9 mg/kg, Group 5 (9 mg/kg SID), C57BL/6 mice, oral
[3] = C57BL/6, mouse, in vivo, po, 9 mg/kg, Group 6 (9 mg/kg BID), C57BL/6 mice, oral
[4] = C57BL/6, mouse, in vivo, po, 9 mg/kg, Group 9 (9 mg/kg Day 5), C57BL/6 mice, oral

For `C#Cc1cccc(-c2cc(=O)n(C)c3ccc([C@](O)(c4ccc(Cl)cc4)c4cncn4C)cc23)c1` [LNK-754, (R)-6-[(4-chlorophenyl)-hydroxyl-(1-methyl-1-H-imidazol-5-yl)-methyl]-4-(3-ethynylphenyl)-1-methyl-2-(1H)-quinonlinone], the “oxygen consumption (OCR)” value (isolated islets / INS1) was “increases oxygen consumption”, the IC50 (GGTase; read-out: H-Ras CAAX Mutant GGTI) was 552 nM and the IC50 (GGTase; read-out: K-Ras CAAX Mutant GGTI) was 2890 nM. The “mitochondrial dynamics (fusion and fission)” value (INS-1 cells) was “promotes mitochondrial dynamics”, the Ki (FTase) was less than 0.05 nM and the “GGTI/FTI (H-Ras)” value (FTase; ratio) was 580. For the same molecule, the “GGTI/FTI (K-Ras)” value (FTase; ratio) was 40.11, the IC50 (FTase; read-out: H-Ras protein CLVS in vitro FTI) was 0.9 nM and the IC50 (FTase; read-out: K-Ras protein CVIM in vitro FTI) was 72 nM.

`C#Cc1cccc(-c2cc(=O)n(C)c3ccc([C@](O)(c4ccc(Cl)cc4)c4cncn4C)cc23)c1` [LNK-754-TS, (R)-6-[(4-chlorophenyl)-hydroxyl-(1-methyl-1-H-imidazol-5-yl)-methyl]-4-(3-ethynylphenyl)-1-methyl-2-(1H)-quinonlinone (2S, 3S)-dihydroxybutanedioate] gave an AUC ([1]; 0.9 mg/kg oral, QD day 1, 5% beta-cyclodextrin, mice) of 34.6 ng·h/mL, a Cmax ([1]; C57BL/6, mouse, in vivo, po, 0.09 mg/kg, 0.09 mg/kg oral, QD day 1, 5% beta-cyclodextrin, mice) of 0.61 ng/mL and an AUC ([1]; C57BL/6, mouse, in vivo, po, 0.09 mg/kg, 0.09 mg/kg oral, QD day 1, 5% beta-cyclodextrin, mice, read-out: AUC) of 0.63 ng·h/mL. The Cmax ([1]; C57BL/6, mouse, in vivo, po, 0.9 mg/kg, 0.9 mg/kg oral, QD day 1, 5% beta-cyclodextrin, mice) was 31.1 ng/mL, the AUC ([1]; C57BL/6, mouse, in vivo, po, 0.9 mg/kg, 0.9 mg/kg oral, QD day 1, 5% beta-cyclodextrin, mice, read-out: AUC) was 34.6 ng·h/mL and the AUC ([1]; C57BL/6, mouse, in vivo, po, 9 mg/kg, 9 mg/kg BID oral, mice (text summary of day 1 and day 5), read-out: AUC) was 2000 to 2600 ng·h/mL. The Cmax ([1]; C57BL/6, mouse, in vivo, po, 9 mg/kg, 9 mg/kg oral, BID day 1, 20% beta-cyclodextrin, mice) was 1380 ng/mL, the AUC ([1]; C57BL/6, mouse, in vivo, po, 9 mg/kg, 9 mg/kg oral, BID day 1, 20% beta-cyclodextrin, mice, read-out: AUC) was 2100 ng·h/mL and the Cmax ([1]; C57BL/6, mouse, in vivo, po, 9 mg/kg, 9 mg/kg oral, BID day 5, 20% beta-cyclodextrin, mice) was 1480 ng/mL. The AUC ([1]; C57BL/6, mouse, in vivo, po, 9 mg/kg, 9 mg/kg oral, BID day 5, 20% beta-cyclodextrin, mice, read-out: AUC) was 2630 ng·h/mL, the AUC(0-inf) [1, 2] was 752 ng·h/mL and the AUC(0-t) [1, 2] was 730 ng·h/mL. For the same molecule, the Cmax [1, 2] was 318 ng/mL, the half-life [1, 2] was 1.5 h and the MRT inf [1, 2] was 2.38 h. It also gave an AUC(0-inf) [1, 3] of 2290 ng·h/mL, an AUC(0-t) [1, 3] of 2100 ng·h/mL and a Cmax [1, 3] of 1390 ng/mL. For the same molecule, the half-life [1, 3] was 5.04 h, the MRT inf [1, 3] was 2.67 h and the AUC(0-inf) [1, 4] was 2630 ng·h/mL. The AUC(0-t) [1, 4] was 2630 ng·h/mL, the Cmax [1, 4] was 1490 ng/mL and the half-life [1, 4] was 0.62 h. The MRT inf [1, 4] was 1.43 h, the Tmax ([1]; C57BL/6, mouse, in vivo, 0.09 mg/kg oral, QD day 1, 5% beta-cyclodextrin, mice) was 0.5 h and the Tmax ([1]; C57BL/6, mouse, in vivo, 0.9 mg/kg oral, QD day 1, 5% beta-cyclodextrin, mice) was 0.5 h. The Tmax ([1]; C57BL/6, mouse, in vivo, 9 mg/kg oral, BID day 1, 20% beta-cyclodextrin, mice) was 1 h, the Tmax ([1]; Group 5 (9 mg/kg SID), C57BL/6 mice, oral) was 1 h and the Tmax ([1]; Group 6 (9 mg/kg BID), C57BL/6 mice, oral) was 1 h. The Tmax ([1]; Group 9 (9 mg/kg Day 5), C57BL/6 mice, oral) was 1 h and the “cognitive performance, Morris water maze (place learning, probe tests)” value (aged non-transgenic rats) was “no significant cognitive improvement”.
